Test system: 966289-007-R4-J1-PDC complex spheroid viability
Experiment: Anticancer human tumor 966289-007-R4-J1-PDC patient-derived pancreatic adenocarcinoma cell line growth inhibition [RAS]
Settings: for IC50: curve of first compound; for viability, T/C: stronger effect = lower value
Summary of the method: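 Agents were tested in combination matrices in half-log decrements from a top concentration at or near clinical Cmax (10 microM if undetermined). Targets were multi-cell spheroids of tumour lines plus HUVEC and MSC stromal cells.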
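Note: spheroids exposed to agents for one week before readout.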
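Throughout, for viability, T/C: percent viability relative to DMSO vehicle control wells as 100%.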

## C=CC(=O)N1CCN(c2nc(OCC3CCCN3C)nc3c(F)c(-c4nc(N)cc(C)c4C(F)(F)F)c(Cl)cc23)C(C)C1 (centres undefined) + CCn1c(-c2cccnc2C(C)OC)c2c3cc(ccc31)N1CCOC(CC(NC(=O)C(C(C)C)N(C)C(=O)C3(F)CCN(C(=O)C#CC(C)(C)N(C)C)CC3)C(=O)N3CCCC(N3)C(=O)OCC(C)(C)C2)C1
Second compound 0.000949 µM
  IC50: > 1000 nM
Second compound 0.003 µM
  IC50: > 1000 nM
Second compound 0.00949 µM
  IC50: > 1000 nM
Second compound 0.03 µM
  IC50: > 1000 nM
Second compound 0.0949 µM
  IC50: > 1000 nM
Second compound 0.3 µM
  IC50: > 1000 nM
Second compound 0.000949 µM, first compound 0.00316 µM
  viability, T/C: 94.7%
Second compound 0.000949 µM, first compound 0.01 µM
  viability, T/C: 74.5%
Second compound 0.000949 µM, first compound 0.0316 µM
  viability, T/C: 93.2%
Second compound 0.000949 µM, first compound 0.1 µM
  viability, T/C: 51%
Second compound 0.000949 µM, first compound 0.316 µM
  viability, T/C: 67.2%
Second compound 0.000949 µM, first compound 1 µM
  viability, T/C: 76.7%
Second compound 0.003 µM, first compound 0.00316 µM
  viability, T/C: 105%
Second compound 0.003 µM, first compound 0.01 µM
  viability, T/C: 66.2%
Second compound 0.003 µM, first compound 0.0316 µM
  viability, T/C: 90%
Second compound 0.003 µM, first compound 0.1 µM
  viability, T/C: 50.3%
Second compound 0.003 µM, first compound 0.316 µM
  viability, T/C: 85.4%
Second compound 0.003 µM, first compound 1 µM
  viability, T/C: 69.7%
Second compound 0.00949 µM, first compound 0.00316 µM
  viability, T/C: 56.1%
Second compound 0.00949 µM, first compound 0.01 µM
  viability, T/C: 81.2%
Second compound 0.00949 µM, first compound 0.0316 µM
  viability, T/C: 94.1%
Second compound 0.00949 µM, first compound 0.1 µM
  viability, T/C: 58.1%
Second compound 0.00949 µM, first compound 0.316 µM
  viability, T/C: 87.2%
Second compound 0.00949 µM, first compound 1 µM
  viability, T/C: 84%
Second compound 0.03 µM, first compound 0.00316 µM
  viability, T/C: 52%
Second compound 0.03 µM, first compound 0.01 µM
  viability, T/C: 65.9%
Second compound 0.03 µM, first compound 0.0316 µM
  viability, T/C: 79.7%
Second compound 0.03 µM, first compound 0.1 µM
  viability, T/C: 59.8%
Second compound 0.03 µM, first compound 0.316 µM
  viability, T/C: 102%
Second compound 0.03 µM, first compound 1 µM
  viability, T/C: 85.3%
Second compound 0.0949 µM, first compound 0.00316 µM
  viability, T/C: 61.3%
Second compound 0.0949 µM, first compound 0.01 µM
  viability, T/C: 76.5%
Second compound 0.0949 µM, first compound 0.0316 µM
  viability, T/C: 95%
Second compound 0.0949 µM, first compound 0.1 µM
  viability, T/C: 93.5%
Second compound 0.0949 µM, first compound 0.316 µM
  viability, T/C: 91%
Second compound 0.0949 µM, first compound 1 µM
  viability, T/C: 93.4%
Second compound 0.3 µM, first compound 0.00316 µM
  viability, T/C: 87.8%
Second compound 0.3 µM, first compound 0.01 µM
  viability, T/C: 90.8%
Second compound 0.3 µM, first compound 0.0316 µM
  viability, T/C: 106%
Second compound 0.3 µM, first compound 0.1 µM
  viability, T/C: 92.2%
Second compound 0.3 µM, first compound 0.316 µM
  viability, T/C: 127%
Second compound 0.3 µM, first compound 1 µM
  viability, T/C: 91.6%

## CC1(C)CCC(Nc2ncc(C(F)(F)F)c(-c3c[nH]c4c(P(C)(C)=O)c(C#N)ccc34)n2)CN1 (centres undefined) + CCn1c(-c2cccnc2C(C)OC)c2c3cc(ccc31)N1CCOC(CC(NC(=O)C(C(C)C)N(C)C(=O)C3(F)CCN(C(=O)C#CC(C)(C)N(C)C)CC3)C(=O)N3CCCC(N3)C(=O)OCC(C)(C)C2)C1
Second compound 0.000949 µM
  IC50: 4.98 nM
Second compound 0.003 µM
  IC50: 5.32 nM
Second compound 0.00949 µM
  IC50: 4.93 nM
Second compound 0.03 µM
  IC50: 3.82 nM
Second compound 0.0949 µM
  IC50: 4.06 nM
Second compound 0.3 µM
  IC50: 2.89 nM
Second compound 0.000949 µM, first compound 0.000949 µM
  viability, T/C: 136%
Second compound 0.000949 µM, first compound 0.003 µM
  viability, T/C: 75.5%
Second compound 0.000949 µM, first compound 0.00949 µM
  viability, T/C: 17.6%
Second compound 0.000949 µM, first compound 0.03 µM
  viability, T/C: 7.64%
Second compound 0.000949 µM, first compound 0.0949 µM
  viability, T/C: 5.45%
Second compound 0.000949 µM, first compound 0.3 µM
  viability, T/C: 7.38%
Second compound 0.003 µM, first compound 0.000949 µM
  viability, T/C: 90.5%
Second compound 0.003 µM, first compound 0.003 µM
  viability, T/C: 77.4%
Second compound 0.003 µM, first compound 0.00949 µM
  viability, T/C: 22.3%
Second compound 0.003 µM, first compound 0.03 µM
  viability, T/C: 7.6%
Second compound 0.003 µM, first compound 0.0949 µM
  viability, T/C: 5.79%
Second compound 0.003 µM, first compound 0.3 µM
  viability, T/C: 7.11%
Second compound 0.00949 µM, first compound 0.000949 µM
  viability, T/C: 83.3%
Second compound 0.00949 µM, first compound 0.003 µM
  viability, T/C: 75.1%
Second compound 0.00949 µM, first compound 0.00949 µM
  viability, T/C: 16.9%
Second compound 0.00949 µM, first compound 0.03 µM
  viability, T/C: 8.28%
Second compound 0.00949 µM, first compound 0.0949 µM
  viability, T/C: 5.11%
Second compound 0.00949 µM, first compound 0.3 µM
  viability, T/C: 5.09%
Second compound 0.03 µM, first compound 0.000949 µM
  viability, T/C: 72%
Second compound 0.03 µM, first compound 0.003 µM
  viability, T/C: 59.6%
Second compound 0.03 µM, first compound 0.00949 µM
  viability, T/C: 13.6%
Second compound 0.03 µM, first compound 0.03 µM
  viability, T/C: 5.23%
Second compound 0.03 µM, first compound 0.0949 µM
  viability, T/C: 4.63%
Second compound 0.03 µM, first compound 0.3 µM
  viability, T/C: 3.91%
Second compound 0.0949 µM, first compound 0.000949 µM
  viability, T/C: 71.8%
Second compound 0.0949 µM, first compound 0.003 µM
  viability, T/C: 65.2%
Second compound 0.0949 µM, first compound 0.00949 µM
  viability, T/C: 7.56%
Second compound 0.0949 µM, first compound 0.03 µM
  viability, T/C: 3.47%
Second compound 0.0949 µM, first compound 0.0949 µM
  viability, T/C: 3.17%
Second compound 0.0949 µM, first compound 0.3 µM
  viability, T/C: 3.37%
Second compound 0.3 µM, first compound 0.000949 µM
  viability, T/C: 62.6%
Second compound 0.3 µM, first compound 0.003 µM
  viability, T/C: 49.6%
Second compound 0.3 µM, first compound 0.00949 µM
  viability, T/C: 6.28%
Second compound 0.3 µM, first compound 0.03 µM
  viability, T/C: 2.91%
Second compound 0.3 µM, first compound 0.0949 µM
  viability, T/C: 2.13%
Second compound 0.3 µM, first compound 0.3 µM
  viability, T/C: 1.99%
